Experimental data from patent US8034923B1, “Reagents for reversibly terminating primer extension” (priority 2009, dated 2011).

Experiments:
[1] = Treatment of natural nucleosides with aqueous nitrous acid (control, decomposition by HPLC); format: physicochemical; conditions: 700 mM NaNO2, 1 M NaOAc, pH 5.5, room temperature; for oxidation 2 min (extrapolated): extrapolated to 2 min
Method: (§1) To an aqueous solution of 3′-O-aminothymidine (1b, 20 mM, 2 μL) was added aqueous nitrous acid (350-700 mM NaNO2/1 M NaOAc, 50 μL, pH 5.5-5.75). The resulting pH was measured with a microelectrode (accuracy ca. ±0.02). After 1 or 2 min at room temperature, the reaction was quenched by the addition of K-phosphate buffer (1 M, 200 μL, pH 7), and analyzed by analytical reverse-phase HPLC (Waters NovaPak C-18 4 μm, 3.9×150 mm, with guard column Waters NovaPak C-18 4 μm, 3.9×15 mm, eluent A=25 mM TEAA pH 7, eluent B=acetonitrile, gradient from 3% B to 13% B in 20 min, flow rate=0.5 mL/min, Rt=product: 8 min; starting material: 11 min.). The amount of cleavage was determined by integrating (267 nm) the peaks of the remaining 1b and the product (thymidine). The rates are as follows: As control, the natural nucleosides were treated as follows: An aqueous solution of 2′-deoxyguanosine or 2′-deoxyadenosine or 2′-deoxycytidine (20 mM, 30 μL) was treated with aqueous nitrous acid (700 mM NaNO2, 1 M NaOAc, pH 5.5, 500 μL) at room temperature for 72 h (i.e. 4320 min). An aliquot (50 μL) was removed, neutralized by the addition of K-phosphate buffer (1 M, 200 μL, pH 7), and analyzed by analytical reverse-phase HPLC (Waters NovaPak C-18 4 μm, 3.9×150 mm, with guard column Waters NovaPak C-18 4 μm, 3.9×15 mm. eluent A=25 mM TEAA pH 7, eluent B=acetonitrile, gradient from 0% B to 3% B in 10 min, then to 30% B in 20 min, flow rate=0.5 mL/min, Rt=dG: 14 min, dA: 18 min, dC: 8 min). The amount of decomposition was determined by integrating (260 nm) the peaks of the remaining starting material (nucleoside) and the product(s).

[2] = target: Terminal Transferase (TdT) (Bos taurus, UniProt P06526); assay: Tailing of reversible terminators using terminal transferase; format: biochemical; conditions: 5 μM to 250 μM terminator, 37° C., 1 hour, 8% PAGE
Method: The oligonucleotide SEQ ID 1 was ^32P-5′ labeled using OptiKinase (USB Corporation). Pyrimidine tailing buffer reactions (20 μL) contained 100 mM cacodylate buffer (pH 7.1), 2 mM CoCl2, 0.1 mM DTT, […] of radiolabeled template (0.5 μM), 10 units of Terminal Transferase (TdT), and varying amounts of reversible terminator from 5 μM to 250 μM. Samples were incubated at 37° C. for 1 hour and were terminated by heating at 70° C. for 10 min. Samples were resolved on 8% PAGE. […] If treated with TdT and a composition of the instant invention, the ssDNA would be derivatized with a 3′-ONH2 group. This could then be captured by an aldehyde affixed to a solid support.

[3] = Cleavage of 3′-O-aminothymidine 1b with aqueous HONO and no cosolvent; format: physicochemical
Method: as §1

[4] = target: T1, PD-42 (Taq A597T, L616A, F667Y, E745H) (Thermus aquaticus, UniProt P19821, A597T/E745H/F667Y/L616A); assay: Primer extension / fidelity test with PD-42; format: biochemical; conditions: 100 μM, 72° C.
T1 construct: made in house; pASK-IBA43plus vector
Method: (§2) Gamma-^32P-labeled primer SEQ ID 1 (2.5 pmol), cold primer SEQ ID 1 (22.5 pmol) and template SEQ ID 2 (30 pmol) were annealed by incubation at 95° C. for […] in NEB ThermoPol Reaction Buffer (20 mM Tris-HCl, 10 mM KCl, 10 mM (NH4)2SO4, 2 mM MgSO4, 0.1% TritonX-100) and slowly cooled to room temperature, followed by the addition of Taq cell-free extract (4 μL, the sole source of polymerase). Then, the mixture (final volume 10 μL) was pre-heated to 72° C. (30 sec), and the extension was initiated by adding either reversibly terminated or irreversibly terminated nucleoside triphosphates (final concentration of 100 μM) or both. After 2 mM, the reaction was quenched by 10 mM EDTA in formamide loading buffer (20 μL) and was resolved on a 14% PAGE (FIGS. 8 and 9).
In a 10 μL reaction volume, γ^32P-labeled primer SEQ ID 1([…]), cold primer SEQ ID 1 ([…]) and four kinds of 36 nt long template ([…]) (see above) were annealed respectively by incubation at 95° C. for 5 min and slow cooled to room temperature. 1 (0.25 μg/μL) of PD-42 and 58 (polymerases were purified by Qiagen Ni-NTA Spin Kit) were then added to reactions and incubated at 72° C. for 2 min. Reactions were initiated by the addition of dNTP-ONH2 or ddNTP (Final concentration of 100 μM) (refer to FIG. 13 for specifics) and were resolved on a 14% PAGE.
Two of the 93 variants that performed well with both dTTP-3′-ONH2 and ddTTP were further examined: PD-42 (A597T, L616A, F667Y, E745H) and PD-58 (E520G, K540I, L616A).

[5] = target: T2, Taq polymerase from New England Biolabs (Thermus aquaticus, UniProt P19821); assay: Standing start primer-extension assay; format: biochemical; conditions: 100 μM triphosphate, 72° C., 2 min
T2 construct: purchased New England Biolabs
Method: as §2
(§3) 93 Taq polymerase variants from PD library (Table 1) were tested for their ability to incorporate TTP-ONH2. Co-Taq polymerase and the Taq polymerase from New England Biolabs were also tested in parallel as controls. […] Of these variants, eight extended the primer by more than 50% to N+1, performing better than Co-Taq.

[6] = target: T3, PD-58 (E520G, K540I, L616A) (Thermus aquaticus, UniProt P19821, E520G/K540I/L616A); assay: Primer extension / fidelity test with PD-58; format: biochemical; conditions: 100 μM, 72° C.
T3 construct: made in house; pASK-IBA43plus vector
Method: To determine whether HONO could cleave the 3′-terminal ONH2 group from a template-bound oligonucleotide and permit subsequent primer extension in a cycle of the type needed for sequencing using cyclic reversible termination, a 5′-biotinylated template that called for incorporation of two consecutive T's opposite the two consecutive template A′ s was used. Streptavidin on magnetic beads was used to recover products. In the first cycle, beads were incubated (72° C., 2 min) with PD-58 polymerase in the presence of T-ONH2 triphosphate (100 μM). Then, the products were treated with buffered sodium nitrite/HONO to cleave the —ONH2 group, generating a free 3′-OH group. […] This was indicated by a slower moving band arising from the reversibly terminated N+1 product.
as §2, with “After 2 mM, the reaction was quenched by 10 mM EDTA in formamide loading buffer (20 μL) and was resolved on a 14% PAGE (FIGS. 8 and 9).” left out

[7] = system: 93 Taq polymerase variants from PD library; assay: Standing start primer-extension assay, PD library screen; format: biochemical; conditions: 100 μM triphosphate, 72° C., 2 min
Method: as §2, §3
To explore the potential of these variant polymerases to incorporate the corresponding 2′-, 3′-dideoxynucleotide, they were challenged with ddTTP (FIG. 9). A total of 27 variant polymerases were able to incorporate ddTTP to a detectable extent, while three of these variants converted more than 50% of the primer to n+1 product.

[8] = [HONO] 700 mM, pH 5.50, room temperature

T1 sequence (P19821 whole entry A597T/L616A/F667Y/E745H): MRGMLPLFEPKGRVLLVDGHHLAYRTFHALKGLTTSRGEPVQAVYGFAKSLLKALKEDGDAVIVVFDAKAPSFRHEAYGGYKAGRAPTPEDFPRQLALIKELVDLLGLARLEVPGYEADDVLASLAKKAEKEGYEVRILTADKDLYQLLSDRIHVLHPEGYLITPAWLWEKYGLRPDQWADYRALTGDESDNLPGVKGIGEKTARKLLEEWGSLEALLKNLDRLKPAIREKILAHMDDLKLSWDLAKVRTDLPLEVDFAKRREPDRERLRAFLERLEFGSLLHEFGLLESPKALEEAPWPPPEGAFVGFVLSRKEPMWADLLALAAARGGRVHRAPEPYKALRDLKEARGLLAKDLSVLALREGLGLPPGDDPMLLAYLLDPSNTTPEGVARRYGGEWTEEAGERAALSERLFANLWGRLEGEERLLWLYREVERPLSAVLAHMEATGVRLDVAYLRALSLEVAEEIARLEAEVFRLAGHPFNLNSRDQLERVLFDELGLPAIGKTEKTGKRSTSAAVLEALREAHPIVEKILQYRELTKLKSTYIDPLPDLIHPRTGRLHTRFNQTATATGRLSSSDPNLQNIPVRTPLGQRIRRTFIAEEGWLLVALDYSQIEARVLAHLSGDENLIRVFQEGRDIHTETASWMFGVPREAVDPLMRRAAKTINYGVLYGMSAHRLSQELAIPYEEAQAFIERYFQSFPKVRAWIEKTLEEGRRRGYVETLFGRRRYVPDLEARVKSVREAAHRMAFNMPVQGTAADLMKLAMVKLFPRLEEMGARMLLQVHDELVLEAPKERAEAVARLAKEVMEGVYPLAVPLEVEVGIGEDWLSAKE
Chain of Terminal Transferase (TdT) (P06526 whole entry): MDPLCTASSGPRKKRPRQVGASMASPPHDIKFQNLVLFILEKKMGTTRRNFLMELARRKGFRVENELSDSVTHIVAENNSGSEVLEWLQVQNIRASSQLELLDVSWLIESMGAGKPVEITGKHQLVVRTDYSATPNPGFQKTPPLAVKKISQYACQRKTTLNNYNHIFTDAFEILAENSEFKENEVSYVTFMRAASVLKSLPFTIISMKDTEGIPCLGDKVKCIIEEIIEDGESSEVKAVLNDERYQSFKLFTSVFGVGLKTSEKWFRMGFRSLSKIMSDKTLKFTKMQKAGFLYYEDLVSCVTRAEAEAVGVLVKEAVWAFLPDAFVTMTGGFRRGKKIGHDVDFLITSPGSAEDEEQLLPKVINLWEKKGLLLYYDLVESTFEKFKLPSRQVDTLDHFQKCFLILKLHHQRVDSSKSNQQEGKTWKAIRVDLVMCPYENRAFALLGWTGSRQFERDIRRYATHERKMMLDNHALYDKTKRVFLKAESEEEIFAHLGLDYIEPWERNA
T3 sequence (P19821 whole entry E520G/K540I/L616A): as the sequence (P19821 whole entry A597T/L616A/F667Y/E745H) above, with E520G, K540I, T597A, Y667F, H745E counted along it
T2 sequence (P19821 whole entry): as the sequence (P19821 whole entry A597T/L616A/F667Y/E745H) above, with T597A, A616L, Y667F, H745E counted along it

Nc1ccn([C@H]2C[C@H](O)[C@@H](CO)O2)c(=O)n1 [dC, 2′-deoxycytidine]
oxidation 72 h [1]: 15% | oxidation 2 min (extrapolated) [1]: <1/10000

NO[C@H]1C[C@H](n2cnc3c(=O)[nH]c(N)nc32)O[C@@H]1COP(=O)(O)OP(=O)(O)OP(=O)(O)O [dGTP-ONH2, 3′-O-Amino-2′-deoxyguanosine-5′-triphosphate]
primer consumption on TdT tailing [2]: Almost all of the primer was exhausted

Cc1cn([C@H]2C[C@H](ON)[C@@H](CO)O2)c(=O)[nH]c1=O [1b, 3′-O-aminothymidine]
cleavage 2 min ([3]; [HONO] 350 mM, pH 5.50, room temperature): 90% | cleavage 1 min [3, 8]: 98% | cleavage 2 min [3, 8]: >99% | cleavage 2 min ([3]; [HONO] 700 mM, pH 5.65, room temperature): 96%

NO[C@H]1C[C@H](n2ccc(N)nc2=O)O[C@@H]1COP(=O)(O)OP(=O)(O)OP(=O)(O)O [dCTP-ONH2, 3′-O-Amino-2′-deoxycytidine-5′-triphosphate]
misincorporation product opposite template dC by PD-42 ([4]; PAGE): trace amounts of products | primer consumption on TdT tailing [2]: almost all of the primer was remaining

Nc1nc2c(ncn2[C@H]2C[C@H](O)[C@@H](CO)O2)c(=O)[nH]1 [dG, 2′-deoxyguanosine]
oxidation 72 h [1]: 20% | oxidation 2 min (extrapolated) [1]: <1/10000

Cc1cn([C@H]2C[C@H](ON)[C@@H](COP(=O)(O)OP(=O)(O)OP(=O)(O)O)O2)c(=O)[nH]c1=O [TTP-ONH2, 3′-O-Amino-thymidine-5′-triphosphate]
N+1 product on incorporation [5]: at most a trace of N+1 product | incorporation by PD-58 ([6]; PD library screen): best incorporation | primer extension and termination by PD-58 ([6]; template on streptavidin magnetic beads, 2 min): clean N+1 products | number of variant polymerases able to incorporate better than NEB Taq [7]: 30 | number of variants that extended more than 50% of the primer to N+1 [7]: eight | share of the PD library mutants able to incorporate better than NEB Taq [7]: 32.3% | incorporation by PD-42 ([4]; PD library screen): best incorporation

NO[C@H]1C[C@H](n2cnc3c(N)ncnc32)O[C@@H]1COP(=O)(O)OP(=O)(O)OP(=O)(O)O [dATP-ONH2, 3′-O-Amino-2′-deoxyadenosine-5′-triphosphate]
misincorporation product opposite template A (SEQ ID 3) by PD-42 ([4]; PAGE): trace amounts of products

Nc1ncnc2c1ncn2[C@H]1C[C@H](O)[C@@H](CO)O1 [dA, 2′-deoxyadenosine]
oxidation 72 h [1]: 13% | oxidation 2 min (extrapolated) [1]: <1/10000

Cc1cn([C@H]2CC[C@@H](COP(=O)(O)OP(=O)(O)OP(=O)(O)O)O2)c(=O)[nH]c1=O [ddTTP, 2′,3′-dideoxythymidine-5′-triphosphate, reference compound]
number of variant polymerases able to incorporate to a detectable extent [7]: 27 | number of variants that extended more than 50% of the primer to N+1 [7]: three
